Assay results taken from the supplement of paper PMC8837787.

Test system: Saccharomyces cerevisiae ABC16-Green Monster
Assay: growth inhibition at single dose (up to 150 µM), below the 70% cut-off for dose-response; higher = more potent
Settings: 18 h; 30 °C; YPD
Outline: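 Percent growth inhibition is the reported value. Drug-sensitive S. cerevisiae ABC16-Green Monster cultures in log phase (OD600 0.1–0.2), 200 µl per well in 96-well plates, received each library compound once at 150 µM in biological duplicates, with untreated cultures run alongside. Growth was followed by OD600 at 0 h and after 18 h at 30 °C. Dose-response was not done for compounds below 70% in both replicates.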

SMILES	growth inhibition at single dose
COc1ccc(CCNC(=O)c2cc(S(=O)(=O)N3CC(C)CC(C)C3)ccc2Sc2ccc(F)cc2)cc1OC (stereo not drawn)	< 70%
Cc1ccc(-c2cc3nc4c(c(O)n3n2)CCCC4)cc1	< 70%
O=C(Nc1cccc(-c2ccc(NCCCN3CCCC3)nc2)c1)c1ccccc1	< 70%
CNC(=O)c1nn(C)c2c1C(C)(C)Cc1cnc(Nc3ccc(N4CCN(C)CC4)cc3)nc1-2	< 70%
CO/C=C(/C(=O)OC)c1ccccc1Oc1cc(Oc2ccccc2C#N)ncn1	< 70%
COc1ccc(-c2cc3c(nn2)-c2ccccc2C3=O)cc1	< 70%
CCOc1c(Br)cc(C2C(C(=O)OC)=CN(C)C=C2C(=O)OC)cc1OC	< 70%
N=C1NC(=O)C(Cc2ccc(OC(F)(F)F)cc2)S1 (stereo not drawn)	< 70%
Cc1nc(C(=O)N2CCc3c(c(C(=O)NCc4ccccn4)nn3CCc3ccccc3)C2)cs1	< 70%
O=C(Nc1cccc([N+](=O)[O-])c1)c1[nH]nc2ccccc12	< 70%
CC1COC2(CCN(c3nc(=O)c4cc(C(F)(F)F)cc([N+](=O)[O-])c4s3)CC2)O1 (stereo not drawn)	< 70%
CCCCc1c(CCC)c(=N)c2ccccc2n1C	< 70%
c1ccc2sc(-c3nc4ccccc4s3)nc2c1	< 70%
Nc1ncnc2c1c(Cc1cccc3ccccc13)nn2CC1CCNCC1	< 70%
Cc1ccnc(NC(=O)C2CC(=O)N(c3ccc(C)c(C)c3)C2)c1 (stereo not drawn)	< 70%
Cc1ccn2cc(C(=O)Nc3nnc(CC(C)C)s3)nc2c1	< 70%
C#CCNS(=O)(=O)c1ccc(C(=O)Nc2ccccc2O)cc1	< 70%
O=C(Nc1ccc(N2CCCC2)cn1)C1CC=CCC1 (stereo not drawn)	< 70%
CNc1snc(C)c1C(=O)OCc1coc(-c2cccs2)n1	< 70%
Nc1cccnc1Nc1ccc(Cl)cc1	< 70%
Cc1ccc(NC(=O)Nc2cccc(Cl)c2)cc1F	< 70%
O=C(Nc1ccc(N2CCCC2)cn1)c1cc(Cl)ccn1	< 70%
Cc1cc(NC(=O)c2ccc(-c3ccccc3)cc2)no1	< 70%
COc1ccc(C(=O)Nc2ccc3nc(N4CCCCC4)cc(C)c3c2)cc1OC	< 70%

SMILES	growth inhibition at single dose
CC(C)(C)OC(=O)N1CCN(c2nccc(-c3ccc(-c4ccc(Cl)cc4)s3)n2)CC1	< 70%
COc1ccc(OC)c(NCc2ccc3nc(N)nc(N)c3c2Cl)c1	< 70%
COc1ccc(NC2=NC(=O)/C(=C/c3cc(C)n(-c4cccc(Cl)c4Cl)c3C)S2)cc1	< 70%
COc1ccc(/C(C#N)=C/c2ccccc2OC)cc1	< 70%
COc1ccc(-c2csc(NC(=O)CN3CCN(c4ncnc5c4cnn5C)CC3)n2)cc1	< 70%
CC1(COc2ccc(N3CCC(Oc4ccc(OC(F)(F)F)cc4)CC3)cc2)Cn2cc([N+](=O)[O-])nc2O1 (stereo not drawn)	< 70%
O=C(c1cnc2cc3c(cc2c1)OCCO3)c1cc(F)ccc1O	< 70%
COc1ccc(-c2nc3cc(Cc4ccc5[nH]c(-c6ccc(OC)cc6)nc5c4)ccc3[nH]2)cc1	< 70%
O=C1N/C(=N\C2CCCC2)S/C1=C\c1ccc2c(c1)OCCO2	< 70%
CCCCOc1ccc(C(=O)Nc2cc(C)on2)cc1	< 70%
CC/N=c1\scc(-c2ccc(Cl)cc2)n1/N=C/c1ccc[nH]1	< 70%
O=C(COc1ccc(Oc2ccccc2)cc1)NCc1cn2ccccc2n1	< 70%
O=C(N[C@H](Cc1ccccc1)C(=O)Nc1ccccc1N1CCOCC1)c1cccs1	< 70%
Cc1ccnc2nc(C(=O)Nc3cc(C(F)(F)F)ccc3N3CCCCCC3)nn12	< 70%
O=C(Nc1nc2ccc(Oc3ccccc3)cc2s1)C1=COCCO1	< 70%
CCCOc1ccc(/C=N/NC(=S)Nc2ccccc2[N+](=O)[O-])c(O)c1	< 70%
CCOC(=O)c1cc(-c2csc(Nc3c(C)cc(C)cc3C)n2)on1	< 70%
Cc1cc(C(=O)Cn2c(CO)nc3ccccc32)c(C)n1Cc1ccco1	< 70%
CCC(=O)Nc1ccccc1C(=O)Nc1ccccn1	< 70%
O/N=C1/c2ccccc2-c2nnc(-c3cccc(OC(F)(F)F)c3)cc21	< 70%
COC(=O)c1ccc(CNC(=O)NCCN2c3ccccc3CCC2C)cc1 (stereo not drawn)	< 70%
CCOc1cc2c(cc1OCC)C(c1cc(Cl)ccc1O)NCC2 (stereo not drawn)	< 70%
CN(C)Cc1nc(=O)c2c([nH]1)-c1ccccc1CC2(C)C	< 70%
O=C(NCc1ccoc1)N1CCN(Cc2ccc3c(c2)OCO3)CC1	< 70%

SMILES	growth inhibition at single dose
CC(C(=O)NC(N)=O)N(C)Cc1ccc(OCc2ccc(Cl)cc2)cc1 (stereo not drawn)	< 70%
CC(Oc1ccccc1)C(=O)Nc1nc(-c2ccccn2)cs1 (stereo not drawn)	< 70%
O=C(Nc1ncccc1O)c1ccc(S(=O)(=O)NCCc2cccs2)cc1	< 70%
c1ccc(C2=Nc3ccccc3N=C(c3ccccc3)c3ccccc32)cc1	< 70%
COc1nc2ccc(Br)cc2cc1[C@@H](c1ccccc1)[C@@](O)(CCN(C)C)c1cccc2ccccc12	< 70%
CS(=O)(=O)c1cccc(-c2cnc3[nH]cc(-c4ccc(CCC(=O)O)cc4)c3c2)c1	< 70%
CN(C)c1ccc(C=Cc2nc(=O)c3ccccc3o2)cc1	< 70%
Cc1cc(N(C)C)nc(Nc2ccc(NC(=O)Nc3ccccc3)cc2)n1	< 70%
CN(CCO)c1ccc(C(=O)c2ccc(N(C)CCO)cc2)cc1	< 70%
Cc1ccc(CC(=O)NCc2ccc(C#N)cc2)cc1	< 70%
COc1cc(OC)c(N(C)C(=O)c2cc3c(s2)-c2ccccc2S(=O)(=O)C3)cc1Cl	< 70%
COc1cccc(NC(=O)c2c(NC(=O)c3cccnc3)sc3c2CCC3)c1	< 70%
O=C(/C=C/c1ccc([N+](=O)[O-])cc1)NCC(=O)N1CCN(S(=O)(=O)c2ccc(Cl)cc2)CC1	< 70%
O=C(Nc1ccc(CN2CCOCC2)cc1)c1ccc(-c2cc(Cl)ccc2Cl)o1	< 70%
N=c1n(CCN2CCCCC2)c2ccccc2n1CC(=O)c1ccc(Cl)c(Cl)c1	< 70%
Cc1cc(C)n(-c2nc(-c3ccccc3)cc(N3CCOCC3)n2)n1	< 70%
O=C(c1ccccc1F)N(Cc1ccc(Cl)cc1)c1ccccn1	< 70%
COc1ccccc1CN1CCN2C(=O)[C@@H](Cc3ccc(O)cc3)NC(=O)[C@H]2C1	< 70%
Cc1ccc(NC(=O)c2cc(S(=O)(=O)NC(C)(C)C)ccc2C)nc1	< 70%
CC(C)(C)OC(=O)N1CCN(c2cc(-c3ccc(Oc4ccccc4)cc3)n[nH]2)CC1	< 70%
Cc1ccc(CNC(=O)c2ccc(/C=C3\SC(=O)NC3=O)cc2)cc1	< 70%
Cn1ncc(C#N)c1NC(=O)c1cccc(Oc2ccccc2)c1	< 70%
CCN1CCN(c2c(C(=O)c3ccccc3)cnc3cc(OC)c(OC)cc23)CC1	< 70%
COc1ccc(-c2cc3c(SCC(=O)Nc4cc(C(F)(F)F)ccc4Cl)nccn3n2)cc1	< 70%

SMILES	growth inhibition at single dose
COCCNC(=O)c1nn(CCC(C)C)c2c1CN(C(=O)c1cc(C)n[nH]1)CC2	< 70%
CCN(CC)CCN1COc2c(cc(Cl)c3cccnc23)C1	< 70%
CO[C@@H]1CN(c2ccc(C#CC3(O)CN4CCC3CC4)c(Cc3ccccc3)n2)C[C@H]1O (stereo partly drawn)	< 70%
COc1ccc(N2CCN(C(CNC(=O)C3CCCCC3)c3ccc4c(c3)OCO4)CC2)cc1 (stereo not drawn)	< 70%
COc1ccc2c(=O)c(C(=O)N(C)Cc3ccc(F)c(F)c3)c[nH]c2c1	< 70%
O=C(c1cnn(C(=O)c2nn(-c3ccc(Cl)cc3)cc2O)c1)c1ccccc1O	< 70%
COc1ccc(C2N(C)c3ccccc3N2C)cc1	< 70%
NCC(c1cccs1)S(=O)(=O)c1ccccc1 (stereo not drawn)	< 70%
COc1cccc(-c2cc3c(Nc4cccnc4)nccc3[nH]2)c1	< 70%
O=c1nc(C=Cc2ccc(Br)cc2)oc2ccccc12	< 70%
O=C(Nc1ccc(N2CCNCC2)nc1)c1oc(-c2ccccc2)nc1C(F)(F)F	< 70%
C=C(C)COc1ccc(-c2n[nH]c(C)c2-c2ccc(OC)c(OC)c2)c(O)c1	< 70%
CC(C)(C)NS(=O)(=O)c1cccc2c(N)cccc12	< 70%
Cc1ccc(Nc2nc(NCCO)c3ccccc3n2)cc1C	< 70%
CCNC(=O)C(C)NC(=O)c1cc(-c2ccccc2)nc2c1cnn2Cc1ccccc1Cl (stereo not drawn)	< 70%
CCOC(=O)Cc1ccc(NC(=O)c2ccc(C(C)(C)C)cc2)cc1	< 70%
Cn1c(C(=O)c2cccc3ccccc23)nc2ccccc21	< 70%
COc1ccc2nc(C)cc(Nc3ccccc3O)c2c1	< 70%
Cc1ccc(NC(=O)c2nc[nH]c2C(=O)Nc2nc3ccccc3[nH]2)c(C)c1	< 70%
CCc1c(C(=O)Nc2ccn(CCc3ccccn3)n2)cnn1C(C)(C)C	< 70%
CCOC(=O)C1=C(C)N=c2sc(=Cc3cc(Cl)ccc3O)c(=O)n2C1c1ccc(OC)cc1 (stereo not drawn)	< 70%
